Where a name gives a salt, the structure may show the parent alone.
How the values were obtained:
Format in all cases: cell-based, human
[1] = tested on: γ-globin mRNA in K562 cells; experiment: γ-globin mRNA level in K562 cells by real-time PCR (TaqMan); conditions: 0.3-μM-added group, cultured three days
Protocol: K562 cells (1×10^5 cells/mL) were seeded into each well of 6-well plate (4 mL/well). A solution of compound 1 (×1000) was added to the plate (4 μL/well), and cells were cultured in a CO2 incubator (37° C., 5% CO2) for three days. The cultured cells were collected, and RNA was prepared from the cells by means of a RNeasy mini column (product of Qiagen). Subsequently, cDNA was synthesized from the thus-obtained RNA by use of reverse transcriptase. Through real-time PCR employing a TaqMan probe according to a protocol of Applied Bio-Systems, γ-globin mRNA level was determined (ABI PRISM7900HT System, product of Applied Bio-Systems). In Example 2, the following primers and probe were employed (SEQ ID NOs: 1 to 3): […]
forward primer (GGTTCTTTGACAGCTTTG, SEQ ID NO: 1);
reverse primer (CCTTCTTGCCATGTGCCTT, SEQ ID NO: 2); and
fluorescence probe (CCTCTGCCTCTGCCATC, SEQ ID NO: 3).
These primers and probe are custom synthesis products of Qiagen.

K562 cells [2] = experiment: Measurement of the amount of hemoglobin produced by K562 cells (porphyrin fluorescence); conditions: for hemoglobin production promoting action: FIG. 1
Protocol: Compound 1 was synthesized through a method disclosed in International publication WO 03/02703 (Example 13) and dissolved in dimethyl sulfoxide (DMSO). The concentration of the solution was adjusted as appropriate through dilution. An equiamount of DMSO was employed as a control solution.
Cells of human proerythroblast cell line K562 (obtained from ATCC) were added to a complete culture medium (RPMI-1640 medium containing 10% fetal bovine serum), and the resultant cells (1×10^5 cells/mL) were seeded into each well of 24-well plate (2 mL/well). A solution of compound 1 (×1000) was added to the plate (2 μL/well), and cells were cultured in a CO2 incubator (37° C., 5% CO2) for three days. The medium was renewed, and cells were further cultured for three days.
The cultured cells were collected and counted. The number of cells in each sample was adjusted to 3×10^5, and the intensity of the fluorescence attributed to a porphyrin ring was measured, to thereby determine the hemoglobin level. Specifically, cells collected through centrifugation were suspended in 2M oxalic acid (500 μL), and the suspension was boiled for 30 minutes and cooled. Fluorescence intensity was measured by means of a fluorescence microplate reader (Spectra MAX Gemini EM, product of Molecular Device) ([…]).

K562 cells [3] = experiment: HbF-producing cells (F cells) in K562 cell population by flow cytometry with FITC-labeled anti-HbF antibody; conditions: 0.1-μM compound, cultured three days
Protocol: K562 cells (1×10^5 cells/mL) were seeded into each well of 24-well plate (2 mL/well). A solution of compound 1 (×1000) was added to the plate (2 μL/well), and cells were cultured in a CO2 incubator (37° C., 5% CO2) for three days. The cultured cells were collected through centrifugation and treated for 10 minutes with phosphate buffered saline (PBS) containing 0.05% glutaraldehyde/0.1% bovine serum albumin (BSA). The liquid was removed from the mixture through centrifugation, to thereby obtain pellets. Subsequently, 0.1% BSA/PBS was added to the separated pellets, and the same treatment was performed three times, to thereby wash the cells. The thus-washed cells were subjected, for five minutes, to permeation treatment with 0.1% BSA/PBS containing 1% Triton X-100 (0.5 mL) and washed once again. The resultant cells were suspended in 0.1% BSA/PBS (80 μL). FITC-labeled anti-HbF antibody (10 μg/mL, product of Caltag) (5 μL) was added to the suspension, and the mixture was allowed to react at room temperature in the dark for 15 minutes, whereby HbF present in the cells was immunostained. In a similar manner as described above, the stained cells were washed and suspended in 0.1% BSA/PBS containing 1% formaldehyde (0.5 mL). The suspension was analyzed through a method known in the art, by means of a flow cytometer (EPICS XL, product of Beckman Coulter, Inc.).

COc1ccc(N(Cc2cncc(-c3cc(OC)c(OC)c(OC)c3)c2)C2CCN(Cc3ccnc(-c4cc(OC)c(OC)c(OC)c4)c3)CC2)cc1 [compound 1, 4-[N-(4-Methoxyphenyl)-N-[[5-(3,4,5-trimethoxyphenyl)pyridin-3-yl]methyl]amino]-1-[[2-(3,4,5-trimethoxyphenyl)pyridin-4-yl]methyl]piperidine]
amount of γ-globin mRNA produced (compound-non-added group = 1) [1]: about four fold | amount of hemoglobin produced (compound-non-added group = 100%) (K562 cells [2]; 0.3-μM-added group, cultured 3 + 3 days): 435% | hemoglobin production promoting action (K562 cells [2]): promotes production of hemoglobin in a concentration (dose)-dependent manner | number of HbF-expressing cells (F cells) (K562 cells [3]): almost doubled

COc1cc(C(=O)OCCCN2CCCN(CCCOC(=O)c3cc(OC)c(OC)c(OC)c3)CC2)cc(OC)c1OC [dilazep hydrochloride, Dilazep hydrochloride, reference compound]
hemoglobin production promoting action (K562 cells [2]): did not exhibit hemoglobin production promoting action
